# Experiments:
# [1] = tested on: super refractory status epilepticus; conditions: for response of SRSE to treatment given before GNX: same patient, before pentobarbitol coma or during it (ACTH)
# [2] = tested on: patients with super refractory SE; conditions: Phase 3, randomized, double-blind, placebo-controlled; cited from earlier work
# [3] = cited from earlier work
# SE = assay: ganaxolone intravenous bolus plus continuous infusion in SE (inventors' earlier finding); type: in vivo; conditions: plasma concentration 500 ng/ml or higher for at least about 8 hours
# Description: As described and exemplified herein, the inventors believe that ganaxolone holds promise as an effective therapy for SRSE. […] However, as discussed above, SRSE patients are an extremely ill subset of patients in which SE continues or recurs despite therapy with anesthetic agents (e.g., midazolam, propofol, ketamine, or barbiturate). […] When this occurs, the patient is typically then re-administered anesthetic agents at doses to cause burst suppression and to induce coma. As such, patients are typically weaned off anesthetics very slowly and typically by reducing anesthetics by no more than about 20% per day.
# [4] = toxicology studies in animals focusing on prenatal and neonatal development; type: in vivo
# Description: (§1) Ganaxolone has been administered to infants with severe forms of epilepsy as early as 4 months of age. In clinical trials involving administration of ganaxolone over several weeks, the study drug has been tapered off over a 1 to 2-week period.
# [5] = safety in the ganaxolone clinical development program; type: in vivo, human
# Description: In the completed placebo-controlled Phase 1, 2, and 3 studies, 0.32% of subjects who received ganaxolone and 0.46% of subjects who received placebo developed elevated LFTs during the study (>3x ULN AST and/or ALT). A subject participating in the ganaxolone paediatric epilepsy study developed liver failure, which was not considered to be related to ganaxolone. The subject was diagnosed with short bowel syndrome, liver steatosis and IgG-cholangitis, which were considered to be the causal factors for the subject’s liver failure. There have been no other cases of Hy’s Law or liver failure in the ganaxolone development program. […] After cessation of the dosing, plasma ganaxolone levels are expected to drop rapidly, but it is possible that low sub-therapeutic levels persist for several days as ganaxolone is slowly released from tissues.
# as §1
# status epilepticus = assay: Case Report 1: IV to enteric GNX in a person with SE; type: in vivo, human
# Description: FIGS. 3A-3C show video EEGs in the patient described in Example 2 on day 1 (FIG. 3A), day 2 (FIG. 3B), and day 5 (FIG. 3C). […] Double banana bipolar montage: LFF 1 Hz, HFF 70 Hz; sensitivity, 15 µV/mm; time base, 30 mm/s. EEG, electroencephalogram; HFF, high-frequency filter; LFF, low-frequency filter.
# A person with a history of sporadic primarily febrile and rare afebrile convulsive seizures in early childhood had been seizure-free for 10 years off medication until they began to have focal seizures with generalization. Seizure semiology was characterized by eye fluttering with rapid bilateral involvement at times with leftward head/eye deviation as clusters prior to generalization. They had recurrent seizures over the first three weeks and was admitted to an outside hospital for SE requiring intubation. […] They were transferred to the inpatient pediatric rehabilitation unit after being seizure-free for one month on 5 antiseizure medications (cannabidiol, perampanel, phenobarbital, lacosamide, lorazepam), pyridoxine, ketogenic diet, anakinra, and menstrual suppression.
# A thorough infectious, metabolic, genetic, vascular and autoimmune evaluation was non-diagnostic. While in the inpatient rehabilitation unit they developed a fever of 41.7° C. and respiratory viral panel was positive for parainfluenza. SE returned requiring transfer to the ICU for midazolam and pentobarbital infusions. […] They were seizure-free for two days after drips were weaned before seizures returned prompting vagus nerve stimulator placement and a prolonged 2-week course of IV pentobarbital titrated to EEG burst suppression. As pentobarbital was weaned off, convulsive seizures returned.
# They were granted E-IND approval for a trial of IV to enteric GNX. GNX was administered using an IV bolus followed by infusion over 4 days (with boluses as needed for breakthrough seizures): on day 1 pentobarbital was discontinued; by day 3 clinical and electrographic seizures stopped.
# One month after ganaxolone initiation, the patient was transferred to inpatient rehabilitation services and they were discharged home 1 month later. They were weaned off the ketogenic diet, anakinra, and felbamate with minimal breakthrough clinical seizures (only in setting of intercurrent illness or decreasing ASMs). […] Patient continues to be on ganaxolone and 4 other ASMs (valproic acid, brivaracetam, lorazepam, perampanel). See, FIGS. 1, 2, and 3A-3C.
# [6] = tested on: super refractory status epilepticus; assay: Case Report 3: IV-to-enteric ganaxolone in a person with super refractory status epilepticus (FIRES); type: in vivo, human
# Description: A previously healthy person presented with encephalopathy and fever and developed super refractory status epilepticus concordant with fever-induced refractory […] (FIRES). On administration, the patient presented in the emergency department (ED) with fever, abdominal pain, and encephalopathy. Patient was admitted to pediatric intensive care unit (PICU) and placed on video-electroencephalogram (vEEG). See, FIG. 4.
# Immunomodulatory therapies with IV methylprednisolone and IVIG were initiated concomitantly.
# After multiple ASMs, failed attempts to wean pentobarbital, and ketamine and midazolam infusions, they were treated under EIND approval for a trial of IV-to-enteric ganaxolone. Ganaxolone was administered on hospital day 17 using an IV bolus, followed by infusion over 6 days (with boluses as needed for breakthrough seizures) (FIG. 5). Midazolam was discontinued on day 2 of GNX IV protocol; ketamine was discontinued by day 8 with the assistance of phenobarbital loads and maintenance Anakinra was initiated on day 2 of GNX IV protocol (hospital day 19).
# CYP3A⅘ = assay: metabolism and interaction with strong CYP inducers (in vitro data and human PK data)
# progesterone receptor = molecular target: T1, progesterone receptor (Homo sapiens, UniProt P06401); assay: activation of the progesterone receptor (hormonal activity); conditions: directly or via metabolic conversion
# T1 sequence (P06401 1-933): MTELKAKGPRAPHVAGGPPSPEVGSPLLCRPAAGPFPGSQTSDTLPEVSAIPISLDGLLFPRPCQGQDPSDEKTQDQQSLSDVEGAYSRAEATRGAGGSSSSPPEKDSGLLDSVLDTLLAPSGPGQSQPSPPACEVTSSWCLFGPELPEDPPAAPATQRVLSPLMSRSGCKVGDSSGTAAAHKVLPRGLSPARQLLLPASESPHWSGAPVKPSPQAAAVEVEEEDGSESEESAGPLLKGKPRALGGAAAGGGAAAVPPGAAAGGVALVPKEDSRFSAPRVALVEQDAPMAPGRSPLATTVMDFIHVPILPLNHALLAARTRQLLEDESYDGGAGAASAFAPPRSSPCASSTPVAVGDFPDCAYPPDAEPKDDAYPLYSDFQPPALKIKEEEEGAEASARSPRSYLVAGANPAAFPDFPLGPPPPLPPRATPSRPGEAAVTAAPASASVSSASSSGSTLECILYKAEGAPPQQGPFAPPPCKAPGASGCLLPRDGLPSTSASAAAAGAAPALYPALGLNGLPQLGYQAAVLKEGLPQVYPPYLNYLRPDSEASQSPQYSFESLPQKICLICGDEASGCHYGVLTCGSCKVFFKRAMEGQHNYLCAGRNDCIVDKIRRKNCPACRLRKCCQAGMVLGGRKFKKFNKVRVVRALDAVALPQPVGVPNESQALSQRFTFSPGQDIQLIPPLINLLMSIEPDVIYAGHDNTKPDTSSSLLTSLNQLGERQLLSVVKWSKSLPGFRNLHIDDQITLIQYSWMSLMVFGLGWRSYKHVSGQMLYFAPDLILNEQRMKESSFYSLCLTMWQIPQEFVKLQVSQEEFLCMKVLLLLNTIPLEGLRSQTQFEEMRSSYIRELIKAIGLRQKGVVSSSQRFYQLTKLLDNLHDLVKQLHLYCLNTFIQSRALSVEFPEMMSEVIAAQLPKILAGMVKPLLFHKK
# Description: Ganaxolone (3α-hydroxy-3β-methyl-5α-pregnan-20-one) is a 3β-methylated synthetic analogue of the endogenous neurosteroid allopregnanolone with similar biological activity (Carter et al., (1997), The Journal of Pharmacology and Experimental Therapeutics, 280:1284-1295), but it is designed to not activate nuclear (classical) progesterone receptors.
# [7] = tested on: γ-aminobutyric acid type A (GABAA) receptors; conditions: Carter et al 1997; cited from earlier work
# solubility of ganaxolone = type: physicochemical
# Experimental: Ganaxolone is insoluble in water. […] Ganaxolone has a relatively long half-life - approximately 20 hours in human plasma following oral administration (Nohria, V. and Giller, E., Neurotherapeutics, (2007) 4(1): 102-105). Furthermore, ganaxolone has a short Tmax, which means that therapeutic blood levels are reached quickly.
# Ganaxolone formulations suitable for parenteral administration in the methods of the present invention may comprise physiologically acceptable sterile aqueous or non-aqueous solutions, dispersions, suspensions or emulsions, and sterile powders for reconstitution into sterile injectable solutions or dispersions. Examples of suitable aqueous and non-aqueous carriers, diluents, solvents, or vehicles including water, ethanol, polyols (propylene glycol, polyethylene-glycol, glycerol, cremophor and the like), suitable mixtures thereof, vegetable oils (such as olive oil) and injectable organic esters such as ethyl oleate. Additionally, ganaxolone can be dissolved at concentrations of >1 mg/ml using water soluble beta cyclodextrins (e.g. beta-sulfobutyl-cyclodextrin and 2-hydroxypropylbetacyclodextrin). A particularly suitable cyclodextrin is a substituted-β-cyclodextrin is Captisol®. […]
compound,measurement,setting,value
CCC1(C)CC(=O)NC1=O (stereo not drawn) [ethoxsuccimide],response of SRSE to treatment given before GNX,[1],No response
N#Cc1ccccc1-c1cc(-c2ccccn2)cn(-c2ccccc2)c1=O [perampanel],response of SRSE to treatment given before GNX,[1],No response
CN1C(=O)CN=C(c2ccccc2)c2cc(Cl)ccc21 [diazepam],response of SRSE to treatment given before GNX,[1],No response
CCCC(CCC)C(=O)O [valproic acid],serum level,"[1]; female, human, in vivo",106 µg/mL
Cc1ncc2n1-c1ccc(Cl)cc1C(c1ccccc1F)=NC2 [midazolam],response of SRSE to treatment given before GNX,[1],No response
CC(=O)[C@H]1CC[C@H]2[C@@H]3CC[C@H]4C[C@H](O)CC[C@]4(C)[C@H]3CC[C@]12C [brexanolone],efficacy over placebo in SRSE,[2],failed to show efficacy over placebo
O=C1Nc2ccc(Cl)cc2C(c2ccccc2Cl)=NC1O (stereo not drawn) [lorazepam],response of SRSE to treatment given before GNX,[1],No response
"CC(=O)[C@H]1CC[C@H]2[C@@H]3CC[C@H]4C[C@](C)(O)CC[C@]4(C)[C@H]3CC[C@]12C [ganaxolone, 3α-hydroxy-3β-methyl-5α-pregnan-20-one]",half-life,"[3]; human plasma, oral administration, Nohria and Giller 2007",approximately 20 hours
same,oral bioavailability,[3]; in contrast to allopregnanolone,orally bioavailable
same,Tmax,[3]; in vivo,short
same,time to improvement on EEG,[1]; after IV GNX bolus 0.64 mg/kg,≤ 10 min
same,clinical seizures after hospitalization,"[1]; four weeks after discharge, on oral GNX, 20 seizures per day at baseline",no clinical seizures
same,time of IV GNX until extubation,"[1]; in vivo, iv",48 h
same,suppression of SE,SE,rapid and continued suppression of SE
same,prenatal and neonatal developmental toxicity,[4],have not demonstrated toxicities
same,withdrawal symptoms after cessation,"[5]; clinical trials, tapered off over 1 to 2 weeks",no reports of withdrawal symptoms
same,subjects who developed elevated LFTs (>3x ULN AST and/or ALT),"[5]; completed placebo-controlled Phase 1, 2, and 3 studies",0.32%
same,"ECG intervals, vital signs, physical or neurological examinations",[5]; development program overall,no clinically significant trends
same,excretion to breast milk,[5]; ganaxolone and its metabolites,excreted to breast milk
same,day by which clinical and electrographic seizures stopped,status epilepticus; IV bolus followed by infusion over 4 days,≤ 3 days
same,video EEG finding (FIG. 3C),"status epilepticus; day 5 of protocol, transition from IV to enteric GNX",cessation of seizures
same,seizure status after transition from IV to enteric GNX,status epilepticus; from Day 5,has remained seizure-free
same,durability of response,status epilepticus; more than one year later,response to ganaxolone and seizure cessation were sustained
same,day of GNX IV protocol on which midazolam was discontinued,"[6]; IV bolus, infusion over 6 days",2 days
same,clinical status,"[6]; at 6 weeks, transfer from ICU to the floor",alert and was responsive with some vocalizations
same,clinical status,[6]; by 4 weeks after admission,more responsive
same,day by which ketamine was discontinued,[6]; with the assistance of phenobarbital loads and maintenance,≤ 8 days
same,metabolizing enzyme,"CYP3A⅘; human, in vivo",metabolized by CYP3A⅘
same,lowering in overall ganaxolone levels and exposure,CYP3A⅘; subjects taking strong CYP inducers (carbamazepine and phenytoin),~45%
same,activation of the progesterone receptor,progesterone receptor,does not activate the progesterone receptor directly or indirectly
same,action on GABAA receptors in the CNS,[7],positive allosteric modulator
same,solubility,"solubility of ganaxolone; aqueous with cosolvent or surfactant or cyclodextrin, beta-sulfobutyl-cyclodextrin, 2-hydroxypropylbetacyclodextrin, read-out: concentration dissolved using water soluble beta cyclodextrins",> 1000 µg/mL
same,solubility in water,solubility of ganaxolone; water,insoluble
